Experimental findings from patent US9359451B2, “Methods and compositions for treating trauma-hemorrhage using estrogen and derivatives thereof” (THE UAB RESEARCH FOUNDATION, priority 2012, dated 2016) are described below.

“Also recorded” adds a separate entry of the source.

In assay [1] the test system is TNF-α, IL-1β, IL-6 and MCP-1 mRNA. Briefly: Spinal cord injury: quantitative real time PCR of cytokines and chemokines. Conditions: 24 h after SCI; ICI 182,780: co-administered with 17β-estradiol. It counts as in vivo, mouse. As to the method: Mice were anaesthetized using chloral hydrate (400 mg/kg body weight) (Genovese 2006). A longitudinal incision was made on the midline of the back, exposing the paravertebral muscles. These muscles were dissected away exposing T5-T8 vertebrae. The spinal cord was exposed via a four-level T6-T7 laminectomy and SCI was produced by extradural compression using an aneurysm clip with a closing force of 24 g. Following surgery, 1 ml of saline was administered subcutaneously in order to replace the blood volume lost during surgery. During the surgery and recovery from anesthesia, the mice were placed on a warm heating pad and covered with a warm towel. The mice were singly housed in a temperature-controlled room at 27° C. and survival was measured over a period of 10 days. Food and water were provided to the mice ad libitum. During this time period, the animals' bladders were manually voided twice a day until the mice were able to regain normal bladder function. In all injured groups, the spinal cord was compressed for 1 min. Sham-injured animals were only subjected to laminectomy.
In the experiments regarding the motor score, the animals from all the experimental groups were observed and treated daily for 9 days after SCI. At different time points (see FIG. 30), the mice (n=10 from each group for each of the 3 time points) were sacrificed in order to evaluate the various parameters as described below.
A segment of spinal cord (320±124 mg) encompassing lesion epicentre was homogenized in a solution of Tri-reagent (Sigma®, Germany) according to the manufacturer's instructions. Total cellular RNA was isolated from the aqueous phase then the levels of […], TNF-α, MCP-1, IL-6 gene products were determined by Real Time PCR. The amount of each PCR product of gene target was normalized to Glyceraldehyde-3-phosphate dehydrogenase (GAPDH). The RNA extracted from spinal cord of individual mice was reverse transcripted into first strand cDNA with Random Hexamers and purified Avian Myeloblastosis Virus Reverse Transcriptase (Takara, Japan) in […] of reaction after a DNAse treatment and stored at −80° C. until use. Primers pair for each cytokine was designed using the software Oligo (Molecular Biology Insights, Cascade, Colo., USA). The PCR reactions were performed using the following cycle conditions: a denaturation step for 15 minutes at 95° C. and 40 cycles of 30 seconds denaturation at 94° C., 30 seconds annealing (TNF-á 61° C., IL-6 54° C., IL-1β 61° C., MCP-1 54° C., GADPH 56° C.), 15 sec at 72° C. and 7 minutes of final extension at 72° C. The PCR products were visualized by electrophoresis on agarose gel 2% stained by ethidium bromide. The purified PCR products were cloned into a plasmid vector, transformed into the E. coli TOP 10 (Invitrogen) and purified with Turbo Kit (QBIOgene, CA, USA). The recombinant plasmid was linearized upstream the target sequence using the restriction endonuclease PmeI (Fermentas, Canada). Tenfold dilutions of recombinant plasmid from 10^9 copies down to 10^1 copies were used as standards. The real time PCR assay was developed and evaluated on the Rotor-Gene 3000 system (Corbett Research, Australia). Reaction was carried out in a final volume of 25 μl containing 1× of SYBR PREMIX Ex Taq Takara, 200 nM each forward and reverse primers, 1× of Rox References Dye and 2 μl of cDNA. Cycling parameters were the following: 10 minutes at 95° C. for polymerase activation followed by 40 cycles of 15 seconds at 95° C., 15 seconds annealing (TNF-α 61° C., […], IL-6 54° C., IL-1β 61° C., MCP-1 54° C., GADPH 56° C.) 20 sec at 72° C. The signal was acquired on the FAM channel (multichannel machine) (source, 470 nm; detector, 510 nm; gain set to 5) with the fluorescence reading taken at the end of each 72° C. step. A melt step was added after a cycling run performed with the same parameters of the SYBR Green assay. […]

The subject of another assay is Bax and Bcl-2. Briefly: Spinal cord injury: Western blot analysis for Bax and Bcl-2. In kind it is in vivo, mouse. Conditions: 24 h after SCI; ICI 182,780: co-administered with 17β-estradiol. The method, then:
Mice were anaesthetized using chloral hydrate (400 mg/kg body weight) (Genovese 2006). A longitudinal incision was made on the midline of the back, exposing the paravertebral muscles. These muscles were dissected away exposing T5-T8 vertebrae. The spinal cord was exposed via a four-level T6-T7 laminectomy and SCI was produced by extradural compression using an aneurysm clip with a closing force of 24 g. Following surgery, 1 ml of saline was administered subcutaneously in order to replace the blood volume lost during surgery. During the surgery and recovery from anesthesia, the mice were placed on a warm heating pad and covered with a warm towel. […] Food and water were provided to the mice ad libitum. During this time period, the animals' bladders were manually voided twice a day until the mice were able to regain normal bladder function. In all injured groups, the spinal cord was compressed for 1 min. Sham-injured animals were only subjected to laminectomy. […] In the experiments regarding the motor score, the animals from all the experimental groups were observed and treated daily for 9 days after SCI. At different time points (see FIG. 30), the mice (n=10 from each group for each of the 3 time points) were sacrificed in order to evaluate the various parameters as described below. […] After 1 hour, tissue lysates were obtained by centrifugation at 100,000×g for 15 min at 4° C. Protein concentrations were estimated by the Bio-Rad protein assay (Bio-Rad Laboratories, Segrate, Milan, Italy) using BSA as standard. […] The blot was performed by transferring proteins from a slab gel to nitrocellulose membrane at 240 mA for 40 min at room temperature. […] The AffiniPure Goat Anti-Rabbit IgG coupled to peroxidase secondary antibody (1:2000; Jackson Immuno Research, Laboratories, Inc., CA, USA) was incubated for 1 hour at room temperature. Subsequently, the blot was extensively washed with PBS, developed using SuperSignal West Pico chemiluminescence Substrate (PIERCE, Milan, Italy), according to the manufacturer's instructions, and exposed to Kodak X-Omat film (Eastman Kodak Co., Rochester, N.Y.). α-Tubulin protein (Sigma; 1:1000) Western blot was performed to ensure equal sample loading. The protein bands of Bax (23˜kDa), or Bcl-2 (26˜kDa) on x-ray film were scanned and densitometrically analyzed with a model GS-700 imaging densitometer (Bio-Rad Laboratories). To ascertain that blots were loaded with equal amounts of protein lysates, they were also incubated in the presence of the antibody against α-tubulin protein (1:10,000 Sigma-Aldrich Corp.). The densitometric data for Western are normalized for loading control values.
In general terms: A western blot detects proteins with antibodies after separation by electrophoresis.

Turning to `C[C@]12CC[C@@H]3c4ccc(O)cc4C[C@@H](CCCCCCCCC[S+]([O-])CCCC(F)(F)C(F)(F)F)[C@H]3[C@@H]1CC[C@@H]2O` (stereo partly drawn) [ICI 182,780], in assay [1], the “IL-1β mRNA levels in spinal cord” value is reported as “significantly blocked the effect of the 17β-estradiol”, the “IL-6 mRNA levels in spinal cord” value is “significantly blocked the effect of the 17β-estradiol”, the “MCP-1 mRNA levels in spinal cord” value is on record as “significantly blocked the effect of the 17β-estradiol” and the “TNF-α mRNA levels in spinal cord” value is “significantly blocked the effect of the 17β-estradiol”. In addition, in the assay on Bax and Bcl-2, the “Bax levels (Western blot)” value was “significantly blocked the effect of the 17β-estradiol; also recorded: Bax band is more evident in comparison with the band present in the tissue from 17β-estradiol-treated mice” and the “Bcl-2 expression (Western blot)” value is on record as “significantly blocked the effect of the 17β-estradiol; also recorded: BCL2 band is less evident”.
With `C[C@]12CC[C@@H]3c4ccc(O)cc4CC[C@H]3[C@@H]1CC[C@@H]2O` [17β-estradiol], in assay [1], the “IL-1β mRNA levels in spinal cord” value is “significantly reduced”, the “IL-6 mRNA levels in spinal cord” value was “significantly reduced”, the “MCP-1 mRNA levels in spinal cord” value was “significantly reduced” and the “TNF-α mRNA levels in spinal cord” value is listed as “significantly reduced”. In the assay with Bax and Bcl-2, the “Bax levels (Western blot)” value was “prevented the SCI-induced Bax expression; also recorded: Bax band disappeared” and the “Bcl-2 expression (Western blot)” value was “significantly reduced the SCI-induced inhibition of Bcl-2 expression; also recorded: Bcl-2 band is more evident”.
